{
  "source": "paper PMC6407204",
  "about": "“Oral administration of the cannabigerol derivative VCE-003.2 promotes subventricular zone neurogenesis and protects against mutant huntingtin-induced neurodegeneration” (Translational Neurodegeneration, 2019)",
  "key": {"[1]": {"tested_on": "S. typhimurium TA98 and S. typhimurium TA100", "assay": "AMES reverse mutation assay, overall statement", "assay_type": "cell-based", "conditions": "absence and presence of S9 metabolic activation", "description": "Supplementary file 40035_2019_148_MOESM4_ESM.pdf: Additional file 4: AMES Data Summary. AMES Experimental Procedure. Approximately ten million bacteria are exposed in triplicate to VCE-003-.2 (7.8, 15.6, 31.3, 62.5, 125 and 250 μg/ml), a negative control (vehicle) and a positive control for 90 min in medium containing a low concentration of histidine (sufficient for about 2 doublings). The cultures were then diluted into indicator medium lacking histidine and dispensed into 48 wells of a 384 well plate (micro-plate format, MPF). The plate was incubated for 48 h at 37 °C, and the number of wells showing growth were counted and compared to the vehicle control. An increase in the number of colonies of at least two-fold over baseline (mean + SD of the vehicle control) and a dose response indicates a positive response. […] Where indicated, S9 fraction from the livers of Aroclor 1254-treated rats was included in the incubation at a final concentration of 4.5%. An NADPH-regenerating system is also included to ensure a steady supply of reducing equivalents. The strains used in this study were S. typhimurium TA98 (hisD3052, rfa, uvrB/pKM10 for detection of frame-shift mutations) and S. typhimurium TA100 ([…], rfa, uvrB/pKM101 for detection of base-pair substitutions). VCE-003.2 was assessed for its mutagenic potential in the AMES reverse mutation assay. […]"}, "[2]": {"tested_on": "3-NP model of striatal neurodegeneration", "assay": "3-Nitropropionic acid (3-NP) model of striatal neurodegeneration", "assay_type": "in vivo, C57BL/6 N male mice", "conditions": "10 mg/kg oral gavage every 24 h, sesame oil", "description": "Supplementary file 40035_2019_148_MOESM6_ESM.pdf: Additional file 6: 3-Nitroproprionic acid model of striatal neurodegeneration. 16-week- old C57BL/6 N male mice (Harlan Ibérica, Barcelona, Spain) were subjected to seven intraperitoneal (i.p.) injections of 50 mg/kg 3-NP (one injection each every 12 h prepared in phosphate-buffered saline (PBS)]. 3-NP-treated animals and their respective non-lesioned controls (injected with PBS) were used for pharmacological studies with VCE-003.2. Treatments consisted of oral gavage every 24 h with VCE-003.2 at a dose of 10 mg/kg using sesame oil as vehicle. 12 h after the last injection of 3-NP motor activity, hindlimb clasping and kyphosis were evaluated as previously described. Animals were euthanized at the indicated time after huntingtin-AAV infection or 12 h after the last injection of 3NP and their brains removed. Statistical analysis: One-way ANOVA followed by the Tuckey’s post hoc test was used to determine the statistical significance. All the in vivo data were expressed as mean ± SEM. […]"}},
  "note": "Entries after “also recorded” stand apart in the source; their conditions may differ.",
  "data": [
    {"smiles": "CCCCCC1=C(NCC)C(=O)C(CC=C(C)CCC=C(C)C)=C(O)C1=O", "note": "[VCE-003.2, 2-(3,7-dimethyl-octa-2,6-dienyl)-6-ethylamino-3-hydroxy-5-pentyl-(1,4) benzoquinone]", "values": [
      {"measurement": "genotoxicity in AMES assay (in words)", "setting": "[1]", "value": "not genotoxic; also recorded: negative for genotoxicity"},
      {"measurement": "neuroprotection and anti-inflammatory effect in 3-NP model", "setting": "[2]", "value": "neuroprotective and anti-inflammatory"}
    ]}
  ]
}
